The molecules below were run against T1, human renin (Homo sapiens, UniProt P00797) (assay: Determination of renin IC50 by tGFP FRET assay). Settings: Human recombinant renin, tandem GFP substrate 650 nM, 60 min incubation with compound, pH 7.4, 11-point curve.
T1 sequence (P00797 67-406): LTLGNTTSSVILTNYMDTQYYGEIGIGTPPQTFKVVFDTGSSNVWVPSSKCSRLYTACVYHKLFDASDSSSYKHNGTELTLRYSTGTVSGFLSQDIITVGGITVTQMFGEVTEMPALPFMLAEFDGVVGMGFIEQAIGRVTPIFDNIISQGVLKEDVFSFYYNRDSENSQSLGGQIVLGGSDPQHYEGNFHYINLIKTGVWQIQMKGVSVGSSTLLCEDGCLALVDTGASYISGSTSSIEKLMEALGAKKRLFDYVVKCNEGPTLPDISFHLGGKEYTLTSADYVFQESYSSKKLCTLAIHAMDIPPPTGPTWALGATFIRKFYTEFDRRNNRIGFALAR
Assay type: biochemical
From the text: Determination of Renin IC50 by tGFP FRET Assay
The tGFP FRET (fluorescence resonance energy transfer) assay utilizes a tandem GFP substrate (60 kDa, Discovery Technologies) containing nine amino acid recognition sequences for human renin flanked by two GFP proteins. The assay is used to determine the ability of a compound to act as an inhibitor of renin enzymatic activity by determination of that concentration of test compound that inhibits by 50% (IC50) the ability of renin to cleave the tandem GFP substrate. The IC50 values are determined over an 11-point curve at concentrations of 100 μM to 1 pM. Each compound concentration used to construct the curve was dependent on renin inhibitor potency. For example, subnanomolar IC50 values were determined over an 11-point curve at concentrations of 10 μM to 1 pM. All other IC50 values were determined over an 11-point curve at concentrations of 100 μM to 0.0065 μM. The concentrations were achieved by diluting a 9.1 nM stock of Human recombinant renin in the appropriate amount of buffer containing 50 mM HEPES, 1 mM EDTA, 1% PEG (8000 MW), 1 mM DTT, 0.1% BSA, pH 7.4 to achieve the final concentration of 50.4 μIU. The tGFP substrate stock solution of 43 μM was diluted with the appropriate amount of the above buffer to obtain the final concentration of 650 nM. In addition, 1 μl of the compound is diluted in dimethylsulfoxide (DMSO) to represent an […] log scale (5% final). The SR renin and compound are added to a 384 capacity plate by an automated robot (BIOMEK). The plate is incubated for 60 minutes; upon completion the tGFP substrate is added.
The IC50 is determined by monitoring the increase in […] at 432/432 nm excitation, 530/475 nm emission with a cutoff at 515/455 nm, in a fluorometric plate reader.

Row | SMILES | IC50 [nM]
1 | COc1ccccc1COCCCOc1ccc(N2C(=O)CNC[C@@H]2COc2ccc3c(c2)N(CCOC(C)=O)CCC3)cc1 [Example 31, acetic acid 2-[7-(1-{4-[3-(2-methoxybenzyloxy)-propoxy]-phenyl}-6-oxopiperazin-(2R)-ylmethoxy)-3,4-dihydro-2H-quinolin-1-yl]-ethyl ester] | 0.42
2 | COc1ccc(COC[C@H]2CNCCN2c2ccc(OCCCCOc3ccccc3OC)cc2)cc1 [Example 75, (2R)-2-(4-methoxybenzyloxymethyl)-1-{4-[4-(2-methoxyphenoxy)-butoxy]-phenyl}-piperazine] | 42000
3 | CCC(=O)OCCN1CCCc2ccc(OC[C@H]3CNCC(=O)N3c3ccc(OCCCOCc4ccccc4OC)cc3)cc21 [Example 123, Propionic acid 2-[7-([2R]-1-{4-[3-(2-methoxybenzyloxy)-propoxy]-phenyl}-6-oxopiperazin-2-ylmethoxy)-3,4-dihydro-2H-quinolin-1-yl]-ethyl ester] | 9
4 | COCCCN1C(=O)CCc2ccc(OC[C@@H]3CNCC(=O)N3c3ccc(OCCCOCc4ccccc4OC)cc3)cc21 [Example 112, 7-([2S]-1-{4-[3-(2-Methoxybenzyloxy)-propoxy]-phenyl}-6-oxopiperazin-2-ylmethoxy)-1′-(3-methoxypropyl)-3,4-dihydro-1H-quinolin-2-one] | 1.7
5 | COc1ccccc1COCCCOc1ccc(N2C(=O)CNC[C@@H]2COCc2ccc(C(F)(F)F)cc2)cc1 [Example 13, (6R)-1-{4-[3-(2-methoxybenzyloxy)-propoxy]-phenyl}-6-(4-trifluoromethylbenzyloxymethyl)-piperazin-2-one] | 68
6 | COc1ccccc1COCCCOc1ccc(N2C(=O)CNC[C@@H]2COc2cnccn2)cc1 [Example 79, (6R)-1-{4-[3-(2-methoxybenzyloxy)-propoxy]-phenyl}-6-(pyrazin-2-yloxymethyl)-piperazin-2-one] | 76400
7 | COc1ccccc1COCCCOc1ccc(N2C(=O)CNC[C@@H]2COc2ccc3ncccc3c2)cc1 [Example 52, (6R)-1-{4-[3-(2-methoxybenzyloxy)-propoxy]-phenyl}-6-(quinolin-6-yloxymethyl)-piperazin-2-one] | 3450
8 | COc1ccccc1CSCCCOc1ccc(N2CCNC[C@@H]2COc2ccc3ccccc3c2)cc1 [Example 102, (2R)-1-{4-[3-(2-methoxybenzylsulfanyl)-propoxy]-phenyl}-2-(naphthalene-2-yloxymethyl)-piperazine] | > 1000
9 | COc1ccccc1COCCCOc1ccc(N2C(=O)CNC[C@@H]2COc2ccc3c(c2)N(Cc2cscn2)CCC3)cc1 [Example 55, (6R)-1-{4-[3-(2-methoxybenzyloxy)-propoxy]-phenyl}-6-(1-thiazol-4-ylmethyl-1,2,3,4-tetrahydroquinolin-7-yloxymethyl)-piperazin-2-one] | 379
10 | COc1ccccc1COCCCOc1ccc(N2C(=O)CNC[C@@H]2COc2ccc3ccccc3c2)cc1OC [Example 107, (6R)-1-(3-methoxy-4-[3-(2-methoxybenzyloxy)-propoxy]-phenyl)-6-(naphthalene-2-yloxymethyl)-piperazin-2-one] | 537
11 | COc1ccccc1COCCCOc1ccc(N2C(=O)CNC[C@@H]2COCc2c(F)cccc2F)cc1 [Example 16, (6R)-6-(2,6-difluorobenzyloxymethyl)-1-{4-[3-(2-methoxybenzyloxy)-propoxy]-phenyl}-piperazin-2-one] | > 1000
12 | COc1ccccc1COCCCOc1ccc(N2C(=O)CNC[C@@H]2CNC(=O)c2ccccc2F)cc1 [Example 86, 2-fluoro-N-([2R]-1-{4-[3-(2-methoxybenzyloxy)-propoxy]-phenyl}-6-oxopiperazin-2-ylmethyl)-benzamide] | > 1000
13 | COc1ccccc1COCCCOc1ccc(N2CCNC[C@@H]2COc2ccc3c(c2)N(CCNC(C)=O)CCC3)cc1 [Example 125, N-{2-[7-([2R]-1-{4-[3-(2-Methoxybenzyloxy)-propoxy]-phenyl}-piperazin-2-ylmethoxy)-3,4-dihydro-2H-quinolin-1-yl]-ethyl}-acetamide] | 0.53
14 | COCCCOc1cc(N2C(=O)CNC[C@@H]2COc2ccc3ccccc3c2)ccc1OC [Example 48, (6R)-1-[4-methoxy-3-(3-methoxypropoxy)-phenyl]-6-(naphthalen-2-yloxymethyl)-piperazin-2-one] | 3840
15 | COc1cccc(COCCCOc2ccc(N3CCNC[C@@H]3COc3ccc4ccccc4c3)cc2)c1 [Example 89, (2R)-1-{4-[3-(3-methoxybenzyloxy)-propoxy]-phenyl}-2-(naphthalen-2-yloxymethyl)-piperazine] | 23700
16 | COc1ccccc1COCCCOc1ccc(N2C(=O)CNC[C@@H]2COCc2ccccn2)cc1 [Example 29, (6R)-1-{4-[3-(2-methoxybenzyloxy)-propoxy]-phenyl}-6-(pyridin-2-ylmethoxymethyl)-piperazin-2-one] | > 1000
17 | COc1ccccc1COCCCOc1ccc(N2CCNC[C@@H]2COc2ccc3ccccc3c2)cc1 [Example 32, (2R)-1-{4-[3-(2-methoxybenzyloxy)-propoxy]-phenyl}-2-(naphthalen-2-yloxymethyl)-piperazine] | 153
18 | COc1cccc(CCNC(=O)c2ccc(N3C(=O)CNC[C@@H]3COc3ccc4ccccc4c3)cc2)c1 [Example 50, N-[2-(3-methoxyphenyl)-ethyl]-4-[(2R)-2-(naphthalen-2-yloxymethyl)-6-oxopiperazin-1-yl]-benzamide] | > 1000
19 | COC(=O)CN1C(=O)COc2ccc(OC[C@H]3CNCC(=O)N3c3ccc(OCCCOCc4ccccc4OC)cc3)cc21 [Example 118, [6-([2R]-1-{4-[3-(2-Methoxybenzyloxy)-propoxy]-phenyl}-6-oxo-piperazin-2-ylmethoxy)-3-oxo-2,3-dihydro-benzo[1,4]oxazin-4-yl]-acetic acid methyl ester] | 6.83
20 | COc1ccccc1CSCCCOc1ccc(N2C(=O)CNC[C@@H]2COc2ccc3ccccc3c2)cc1 [Example 101, (6R)-1-{4-[3-(2-methoxybenzylsulfanyl)-propoxy]-phenyl}-6-(naphthalene-2-yloxymethyl)-piperazin-2-one] | > 1000
21 | COc1ccccc1OCCCCOc1ccc(N2CCNC[C@@H]2COc2ccc3ccccc3c2)cc1 [Example 108, (2R)-1-{4-[4-(2-methoxyphenoxy)-butoxy]-phenyl}-2-(naphthalene-2-yloxymethyl)-piperazine] | 1360
22 | COc1ccccc1COCCCOc1ccc(N2C(=O)CNC[C@@H]2COc2ccc3c(c2)N(CC(N)=O)CCC3)cc1 [Example 56, 2-[7-(1-{4-[3-(2-methoxybenzyloxy)-propoxy]-phenyl}-6-oxopiperazin-(2R)-ylmethoxy)-3,4-dihydro-2H-quinolin-1-yl]-acetamide] | 435
23 | COc1ccccc1COCCCOc1ccc(N2C(=O)CNC[C@@H]2CNC(=O)c2ccccc2OC)cc1 [Example 82, 2-methoxy-N-([2R]-1-{4-[3-(2-methoxybenzyloxy)-propoxy]-phenyl}-6-oxopiperazin-2-ylmethyl)-benzamide] | > 1000
24 | COCCCN1CCCc2ccc(OC[C@H]3CNCC(=O)N3c3ccc(OCCCOCc4ccccc4OC)cc3)cc21 [Example 109, (6R)-1-{4-[3-(2-Methoxybenzyloxy)-propoxy]-phenyl}-6-[1-(3-methoxypropyl)-1,2,3,4-tetrahydroquinolin-7-yloxymethyl]-piperazin-2-one] | 3.17
25 | COc1ccccc1COCCCOc1ccc(N2C(=O)CNC[C@@H]2COC(=O)c2ccc3ccccc3c2)cc1 [Example 58, naphthalene-2-carboxylic acid (2R)-1-{4-[3-(2-methoxybenzyloxy)-propoxy]-phenyl}-6-oxopiperazin-2-yl methyl ester] | > 1000
26 | COc1ccccc1COCCCOc1ccc(N2CCNC[C@@H]2COCc2cccc(-c3ccccc3)c2)cc1 [Example 91, (2R)-2-(biphenyl-3-ylmethoxymethyl)-1-{4-[3-(2-methoxybenzyloxy)-propoxy]-phenyl}-piperazine] | 1020
27 | COc1ccccc1COCCCOc1ccc(N2C(=O)CNC[C@@H]2COCc2cccc(Cl)c2)cc1 [Example 6, (6R)-6-(3-chlorobenzyloxymethyl)-1-{4-[3-(2-methoxybenzyloxy)-propoxy]-phenyl}-piperazin-2-one] | 325
28 | COc1ccc(COC[C@H]2CNCCN2c2ccc(OCCCOCc3cc(F)cc(F)c3)cc2)cc1 [Example 67, (2R)-1-{4-[3-(3,5-difluorobenzyloxy)-propoxy]-phenyl}-2-(4-methoxybenzyloxymethyl)-piperazine] | 4340
